In data set [1] the target is T1, PatAB (PatA^WTB^WT) (Streptococcus pneumoniae, UniProt A0ACD7PU88+Q8DN70).
T1 construct: gene ABC-NP; full length; N-terminal His6-PatA and C-terminal PatB-His10, tags kept; coexpressed in Lactococcus lactis NZ9000 ΔlmrA ΔlmrCD
Nature of the data set: ATPase inhibition, malachite green Pi assay. Type of data set: biochemical.

For data set [2], the target named is T2, PatAB (PatA^WTB^WT) (Streptococcus pneumoniae, UniProt A0ACD7PU88+Q8DN70, Q8DN70:Q521A).
T2 construct: gene ABC-NP
Put plainly: biochemical.
From the text: ATPase inhibition, malachite green Pi assay on PatAB (PatA^WTB^WT)

Data set [3] concerns the target T1, PatAB (PatA^WTB^WT). Put plainly: fluorescence anisotropy titration. Type of data set: binding. A general note: Fluorescence polarisation rises when a labelled molecule tumbles more slowly, as on binding a larger partner.
The target of data set [4] is T1, PatAB (PatA^WTB^WT). Put plainly: competition with EMA photolabelling, in-gel fluorescence. Type of data set: binding. The settings on record: 20-fold excess over EMA, membrane vesicles; also transported substrate (efflux from L. lactis cells).
The test system of data set [5] is Nc1nc2c(ncn2[C@@H]2O[C@H](COP(=O)(O)OP(=O)(O)OP(=O)(O)O)[C@@H](O)[C@H]2O)c(=O)[nH]1. Nature of the data set: GTPase, malachite green Pi assay. Type of data set: biochemical, Streptococcus pneumoniae. The settings on record: 10 mM MgCl2, pH 7.0, 30 °C, DDM, no drug.

`CC[N+](C)(CC)CCC[n+]1c(-c2ccccc2)c2cc(N)ccc2c2ccc(N)cc21` [Propidium]: the half-maximal inhibitory concentration (IC50) was 0.9 ± 0.6 µM in data set [1] and 0.9 ± 0.8 µM in data set [2].
`CC[n+]1c(-c2ccccc2)c2cc(N)ccc2c2ccc(N)cc21` [Ethidium]: the 50% inhibitory concentration (IC50) in data set [1] is 7.1 ± 1.8 µM; in data set [2], 6.5 ± 1.7 µM. Also, in data set [3], the dissociation constant Kd was 103 nM.
Turning to `COc1cccc2c1C(=O)c1c(O)c3c(c(O)c1C2=O)C[C@@](O)(C(C)=O)C[C@@H]3O[C@H]1C[C@H](N)[C@H](O)[C@H](C)O1` [daunomycin], the “% reduction in EMA incorporation” value in data set [4] is listed as 75%.
For “PatAB (PatA^WTB^WT) (Streptococcus pneumoniae)”, in data set [5], the Km was determined as 1.1 ± 0.4 mM.
Turning to `CO[C@@H]1[C@@H](OC(N)=O)[C@@H](O)[C@H](Oc2ccc3c(O)c(NC(=O)c4ccc(O)c(CC=C(C)C)c4)c(=O)oc3c2C)OC1(C)C` [Novobiocin], the results for the IC50 in data set [1] and in data set [2] were 4.6 ± 1.7 µM and 9.7 ± 2 µM, respectively.
The corresponding values for `CO[C@@H]1[C@@H](OC(=O)c2ccc(C)[nH]2)[C@@H](O)[C@H](Oc2ccc3c(O)c(NC(=O)c4c[nH]c(C(=O)Nc5c(O)c6ccc(O[C@@H]7OC(C)(C)[C@H](OC)[C@@H](OC(=O)c8ccc(C)[nH]8)[C@H]7O)c(C)c6oc5=O)c4C)c(=O)oc3c2C)OC1(C)C` [Coumermycin A1] are 3.7 ± 0.4 µM and 3 ± 1 µM.

As a reminder, the IC50 is the concentration needed to halve the response being measured. The low end stands for greater potency, the high end for weaker potency. By Kd is commonly meant the equilibrium constant for the complex coming apart. A high value points to weaker binding. The Km is the substrate concentration at which the rate is half of its maximum.

(Values after PMC9541285, “Drug‐dependent inhibition of nucleotide hydrolysis in the heterodimeric ABC multidrug transporter PatAB from Streptococcus pneumoniae” (The Febs Journal, 2022).)
